Assay: gradient 5% acetonitrile 3 min, to 50% in 2 min, to 85% in 15 min, held 3 min, 100 µL/min
Details: column: Zorbax Extend-C18 2.1 x 50 mm; eluents: water / acetonitrile, 0.1% formic acid
Procedure, shortened: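 Values are retention times taken from adduct peaks that software picked and an analyst inspected. The pure standards were run as mixtures of ~100 molecules on HPLC linked to a quadrupole time-of-flight mass spectrometer, in positive and negative ionization mode. A Zorbax Extend-C18 column (2.1 × 50 mm, 1.8 μm) was used at 100 μL/min with water and acetonitrile, each including 0.1% formic acid.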

SMILES | RP-LC retention time
CC(=O)N1CCc2cc(N3CC(C(=O)NCc4ccc(Cl)cc4)CC3=O)ccc21 (centres undefined) | 720 s
CCC(=O)Nc1ccc(-n2cnc(C(=O)NC3CCCCC3)c2)nc1 | 731 s
CCOc1ccc(C(C)NC(=O)C2c3ccccc3CCN2C(=O)C2CC2)cc1 (centres undefined) | 907 s
Cc1cc2n(n1)CCC(=O)N2CCCC(=O)N(C)Cc1ccccc1 | 681 s
O=C(CSc1nnc(COc2ccccc2Cl)o1)Nc1nc(-c2ccccc2)cs1 | 917 s
NC(=O)c1ccc(OCC(O)CN2CC=C(c3ccc(F)cc3)CC2)cc1 (centres undefined) | 512 s
N#Cc1ccc(-c2nc(-c3ccc4c(c3)ncn4CCN3CCCCC3)no2)cc1 | 632 s
Clc1ccc(Cl)c(-c2ccc(CNCC3CCCO3)o2)c1 (centres undefined) | 699 s
COc1ccccc1-c1noc(Cn2ccn3nc(-c4cccc5ccccc45)cc3c2=O)n1 | 1070 s
Cc1cc(C)n(-c2ccc(=O)n(CC(=O)NCc3ccc4c(c3)OCO4)n2)n1 | 668 s
Nc1nc(N2CCN(c3ccccc3F)CC2)ncc1C(=O)Nc1ccccc1 | 821 s
CCCN1C(=O)c2c(C(=O)NCc3cccc(Cl)c3)ncn2CC1(C)C(=O)NC1CCCC1 (centres undefined) | 858 s
CC(=O)Nc1ccc(C(=O)NC2CCN(c3cc(-c4ccc(Cl)cc4)[nH]n3)C2)cc1 (centres undefined) | 675 s
CCc1cccc(NS(=O)(=O)c2cc3n(c2)CCN(C)C3=O)c1 | 722 s
NC(=O)Cc1csc(NC(=O)c2coc(NC(=O)c3ccccc3)n2)n1 | 586 s
Cc1ccc2nc(NC(=O)C3CCN(C(=O)C4Sc5ccccc5NC4=O)CC3)sc2c1 (centres undefined) | 838 s
Cc1cc(S(=O)(=O)N2CCC(C(N)=O)CC2)ccc1F | 649 s
O=C(CN1CCCc2nc(C3CC3)ncc2C1=O)NC1CC1 | 604 s
O=C(NCCN1CCCC1)C1CCCN(c2ccc(Sc3ccc(Br)cc3)nn2)C1 (centres undefined) | 663 s
CC1(C)Cc2cccc(OCC(=O)NCC3CCN(S(C)(=O)=O)CC3)c2O1 | 715 s
COC(=O)CC1=CC(SCC(=O)N2CCC(C)CC2)=Nc2ccccc2N1 | 1000 s
CCOC(=O)COc1cc(-c2ccccc2)nc2ccc(NC(=O)COc3ccc(F)cc3)cc12 | 868 s
CCCNC(=O)N1CCC(c2noc(-c3ccccc3)n2)C1 (centres undefined) | 763 s

SMILES | RP-LC retention time
O=C(Cc1ccc(Cl)cc1)NCC(=O)N1CCCc2ccccc21 | 862 s
COc1ccc(NC(=O)C2CCCN(c3cnc4nccnc4c3)C2)cc1F (centres undefined) | 726 s
CCCOc1nc2ccccc2nc1N1CCCC(C(=O)N2CCN(c3ccc(OC)cc3)CC2)C1 (centres undefined) | 1280 s
O=C(Nc1cc(-c2ccncc2)no1)c1ccccc1 | 663 s
CC(=O)Nc1ccc(SCC(=O)c2ccc(Cl)cc2)nn1 | 756 s
COC(=O)c1ccc(OC)c(Cn2cnc3c(-c4cccc(F)c4)csc3c2=O)c1 | 1080 s
Clc1ccc(OCc2nc(-c3cccc(-c4ccn[nH]4)c3)no2)cc1 | 1010 s
COc1ccc(-n2c(=O)c(C(=O)NCc3ccco3)c(O)c3cccnc32)cc1 | 1050 s
O=C(CCn1nnc2cc(-c3noc(CCC4CCCC4)n3)ccc21)N1CCCC1 | 1050 s
O=C(NCc1ccccc1Br)c1cn2nc(Cl)ccc2n1 | 894 s
Nc1nc(F)nc2c1ncn2[C@@H]1O[C@H](CO)[C@@H](O)[C@@H]1O | 573 s
CCn1cc(CC(=O)NCC2CCCCC2)c2cccnc21 | 783 s
O=C(c1ccc2ccnc(N3CCN(c4ccc(F)cc4)CC3)c2c1)N1CCC2(CC1)OCCO2 | 724 s
Cc1ccc(CNC(=O)c2cc(C)n3nc(-c4ccccn4)cc3n2)cc1 | 924 s
COc1ccccc1CC(=O)N1CCCC1c1cc(C)on1 (centres undefined) | 761 s
CC(C)NC(=O)CSc1ccc(N2CCN(c3ccccc3)CC2)nn1 | 708 s
Cc1noc2ncn(CC(=O)NCc3ccc(F)cc3)c(=O)c12 | 724 s
Cc1cc(Cl)ccc1S(=O)(=O)N1CCc2c(c(-c3nc(C4CC4)no3)nn2C)C1 | 1070 s
Cc1ccc2c(Nc3ccc4c(c3)OCO4)c(C(=O)N3CCOCC3)cnc2n1 | 765 s
CC(C(=O)O)c1ccc2c(c1)Cc1cccnc1O2 (centres undefined) | 797 s
CCC(=O)N1N=C(c2cccs2)CC1c1cccs1 (centres undefined) | 880 s
Cc1csc(-c2cc(S(=O)(=O)Nc3cc(Cl)ccc3F)cn2CC(=O)N2CCCC2)n1 | 924 s
CCN1C(=O)C2(CCN(S(=O)(=O)c3cc(F)ccc3OC)CC2)c2ccccc21 | 1030 s

SMILES | RP-LC retention time
CCC1(C(=O)NCc2ccc(C(C)C)cc2)CCCCC(=O)N1 (centres undefined) | 814 s
Cc1ccc(NC(=O)N2CC(n3ccnc3C(C)C)C2)cc1C | 642 s
CCN1CCN(c2ccc(N3CCCC(C(=O)N4CCN(c5cccc(Cl)c5)CC4)C3)nn2)CC1 (centres undefined) | 610 s
COc1cccc(OCC2c3ccsc3CCN2C(=O)CN(CC2CCCO2)C(C)=O)c1 (centres undefined) | 788 s
COC(=O)c1ccc2c(=O)n(-c3ccc(F)cc3)c(N3CCN(c4ccccn4)CC3)nc2c1 | 660 s
CN(Cc1nc2ccccc2[nH]1)C(=O)c1ccco1 | 537 s
O=C(Cn1cccc(-c2nc(-c3ccc(F)cc3)no2)c1=O)Nc1ccc(Cl)cc1 | 950 s
CCCNC(=O)CCC1CCN(c2cc(NCCC)ncn2)CC1 | 606 s
CN(C)c1nc2ncn3c(=O)n(CC(=O)NC4CCCCC4)nc3c2s1 | 663 s
CCS(=O)(=O)N1CCCc2cc(C(=O)Nc3ccc4c(c3)OCCO4)ccc21 | 858 s
COc1ccc(N2CCN(C(=O)c3c(C)sc4ccn(C)c(=O)c34)CC2)cc1 | 661 s
Cc1ccc(-c2noc(CCN3CCN(c4ccccc4)CC3)n2)cc1 | 751 s
Cn1c(=O)c2nc(SCCC(=O)Nc3ccc(Cl)cc3)n(C)c2n(C)c1=O | 732 s
COc1ccc(OC)c(NC(=O)C2c3ccccc3C(=O)N3CCc4ccccc4C23)c1 (centres undefined) | 903 s
CCc1ccc(S(=O)(=O)Nc2cccc(-c3nc4cccnc4s3)c2C)s1 | 942 s
CCn1ccc2oc(C)c(C(=O)N3CCN(c4ccc(Cl)cc4)CC3)c2c1=O | 854 s
CCCNC(=O)C1CCN(Cc2cc3ccccc3n2Cc2ccccc2Cl)CC1 | 736 s
CCN(CC)C(=O)c1ccc(-c2nnc3ccc(NC(=O)C4CC4)cn23)cc1 | 699 s
Cc1cc2nc(C(=O)Nc3cc(F)cc(F)c3)cc(C)n2n1 | 1050 s
Cc1ccc(NC(=O)C2CCN(S(=O)(=O)c3ccc4c(c3)sc(=O)n4C(C)C)CC2)cc1C | 953 s
CCN1CCN(CCCNC(=O)C2CCCN(c3nc4cccnc4s3)C2)CC1 (centres undefined) | 552 s
CCOC(=O)c1cn[nH]c1S(=O)(=O)N1CCN(c2ccccn2)CC1 | 582 s
COCCn1ccc2c(OCC(=O)N(C(C)C)C(C)C)cccc2c1=O | 798 s

SMILES | RP-LC retention time
CC(=O)N1CCc2nn(CC(=O)Nc3cccc(Br)c3)c(=O)cc2C1 | 666 s
COC(=O)c1cc2c(=O)n(Cc3ccccn3)ccc2nc1C | 638 s
CCN(CC)CCNC(=O)c1cc2n(n1)CCCN(Cc1ccc(F)cc1)C2=O | 556 s
CC1CCN(c2cc3c(cc2NC(=O)COc2ccc(Cl)cc2)n(C)c(=O)c(=O)n3C)CC1 | 1120 s
Cc1ccccc1CNS(=O)(=O)c1cc2c(s1)CCN(C(=O)C1CCC1)C2 | 942 s
Cc1scc2nc(C(=O)NC(C)C)nc(N(C)C)c12 | 581 s
Cc1ccc(CNC(=O)c2sc(Nc3ccc(F)cn3)nc2C)cc1 | 859 s
Cc1ccc(CNC(=O)Cn2cccc2-c2nnc(C3CCC3)o2)cc1 | 904 s
CN(C)S(=O)(=O)c1cc(-c2nnc(-c3ccc(F)cc3)o2)ccc1Cl | 991 s
CCOC(=O)Cn1c(=O)c2c(nc3n2CC(C)CN3c2cc(C)cc(C)c2)n(C)c1=O (centres undefined) | 1050 s
Cc1ccccc1CC(=O)Nc1nnc(SCc2nnc(-c3ccccc3)o2)s1 | 908 s
Cc1cc(-c2c(C)sc(C)c2S(=O)(=O)NCc2ccc(Cl)cc2)n[nH]1 | 1090 s
CCN1C(=O)c2cccnc2Sc2cc(NC(=O)COC)ccc21 | 655 s
Cc1ccc(Cn2c(=O)n(CCNC(=O)c3ccsc3)c3ncccc32)cc1 | 794 s
O=S(=O)(c1ccc(Cl)cc1)N1CCC2(CC1)NCCN=C2NCc1ccc(F)cc1 | 744 s
O=C(NCc1ccccc1)N1CCN(Cc2nc3cc(-c4ccccc4)ccc3o2)CC1 | 825 s
Cc1ccc(CNC(=O)c2ccc3c(=O)n(Cc4ccccc4)c(N4CCCC4)nc3c2)o1 | 683 s
Cc1cc(NS(=O)(=O)c2cc(-c3[nH]ncc3C(=O)N3CCOCC3)oc2C)ccc1F | 691 s
C[C@@H]1CC2C3CCC4=CC(=O)C=CC4(C)[C@@]3(F)[C@@H](O)CC2(C)[C@@]1(O)C(=O)CO (some centres undefined) | 737 s
O=C(Cn1nc(Cc2ccncc2)c2ccccc2c1=O)N1CCOCC1 | 787 s

From the METLIN SMRT retention time set (Domingo-Almenara et al. 2019)
